Patent publication US10898592B2, “Compositions and methods for reducing the risk of post-imaging pancreatitis” (University Of Pittsburgh—Of The Commonwealth System Of …, priority 2015, dated 2021)

How the values were obtained:
[1] = system: calcineurin (NFAT-luciferase); assay: NFAT-luciferase activity assay, human acinar cells; type: cell-based
Description: (§1) NFAT-luciferase activity assay. Acinar cells were infected with Ad-NFAT-luciferase following a previously described procedure^10,15,16. The construct includes a luciferase gene placed downstream of an IL-4 promoter which contains nine tandem NFAT binding sites^10. Acinar cells were incubated with the NFAT-driven luciferase adenovirus for 1.5 hr prior to stimulation. All of the stated inhibitors were added for 30 min prior to stimulation with RC. NFAT-luciferase was measured using the luciferase assay system. Briefly, cells were spun at 1,000 rpm for 5 min, washed with PBS, and lysed using reporter lysis 5× buffer (Promega #E397A, Madison, Wis.). Samples were vortexed and spun at 12,000 g for 2 min. Supernatant was plated, and luminescence was measured using a Synergy H1 plate reader (BioTek, Winooski, Vt.) and normalized to total protein.

primary acinar cells = assay: Cell necrosis assay (propidium iodide uptake), primary acinar cells; type: cell-based, mouse; conditions: 6 hr incubation; U73122 5 μM; 2-APB 100 μM; BAPTA 64 μM; IKK-2 20 μM; FK506 24 μM; CsA 16 μM
Description: Cell necrosis assay. Acinar cells were incubated in a 48-well plate with 50 μg/ml of propidium iodide (PI) for 30 min prior to addition of RC. Fluorescence was measured at 536 nm excitation and 617 nm emission wavelengths over time a time course of up to 6 hr. Fluorescence was measured after cell lysis with 0.5% Triton-X 100 was used to normalize the results relative to total DNA.

NF-κB = assay: NF-κB-luciferase activity assay, AR42J cells; type: cell-based; conditions: U73122 5 μM; 2-APB 100 μM; BAPTA 64 μM
Description: NF-κB-luciferase activity assay. AR42J cells were differentiated towards an acinar phenotype by administering dexamethasone (100 nM) for 48-72 hr^17. AR42J cells were infected with Ad-NF-κB luciferase 16 h prior to stimulation using a previously described method^12. Following a wash with DMEM/F12 medium, acinar cells were evenly distributed in a 48-well plate and incubated for 30 min at 37° C. They were incubated with RC at varying concentrations and times. NF-κB-luciferase was measured using a commercially available luciferase assay (Promega, Madison, Wis.). Briefly, cells were spun at 1,000 rpm for 5 min, washed with PBS, and lysed using reporter lysis 5× buffer (Promega, catalog no. E397A). Samples were vortexed and spun at 12,000×g for 2 min. The supernatant was plated, and luminescence was measured using a Synergy H1 plate reader (BioTek, Winooski, Vt.) and normalized to total […].

[2] = system: calcineurin (NFAT-luciferase); assay: NFAT-luciferase activity assay, AR42J cells; type: cell-based; conditions: pretreatment; FK506 24 μM; CsA 16 μM; U73122 5 μM; 2-APB 100 μM; BAPTA 64 μM
Description: as §1

[3] = system: calcineurin (NFAT-luciferase); assay: NFAT-luciferase activity assay (calcineurin activation), mouse primary acinar cells; type: cell-based; conditions: 30 min pre-treatment; FK506 24 μM; CsA 16 μM; BAPTA-AM 64 μM
Description: as §1

With `CC(=O)OCOC(=O)CN(CC(=O)OCOC(C)=O)c1ccccc1OCCOc1ccccc1N(CC(=O)OCOC(C)=O)CC(=O)OCOC(C)=O` [BAPTA, BAPTA-AM] the “effect on RC (25%)-induced NFAT-luciferase activity” value [1] was “prevented”, the “effect on RC (12%)-induced acinar cell injury (PI uptake)” value (primary acinar cells) was “prevented” and the “effect on RC-induced NF-κB-luciferase levels” value (NF-κB) was “reduced”. For the same compound, the “effect on RC (6%)-induced NFAT-luciferase activity” value [2] was “prevented” and the “effect on RC (9%)-induced rise in NFAT-luciferase” value [3] was “completely reduced”.
